In patent US7968725B2, “Pyridinyl modulators of γ-secretase” (Janssen Pharmaceutica N.V., priority 2008, dated 2011):
pEC50: −log10 of the molar value.

Target: T1, γ-secretase (Homo sapiens, UniProt P49768)
T1 construct: endogenous in cells; host or cells: SKNBE2 cells carrying APP 695 wild type
Assay: Screening for γ-secretase-modulating activity in SKNBE2 cells carrying the APP 695-wild type (assay per Citron et al 1997)
Format: cell-based
Details: @ 1 uM; SKNBE2 cells carrying APP 695-wild type
Protocol: Screening of the Compounds of the Invention for γ-Secretase-Modulating Activity
Screening was carried out using SKNBE2 cells carrying the APP 695-wild type, grown in DMEM/NUT-mix F12 (HAM) provided by Gibco (cat no. 31330-38) containing 5% Serum/Fe supplemented with 1% non-essential amino acids.
Cells were grown to near confluency.
The screening was performed using the assay as described in Citron et al (1997) Nature Medicine 3: 67.

Q: How did the inhibition at 1 µM turn out when `CC(C)CC(C(=O)O)c1cc(-c2ccc(F)cc2)nc(-c2ccc(C(F)(F)F)cc2)c1` (centres unmarked) [Example 2, 2-[2-(4-Fluoro-phenyl)-6-(4-trifluoromethyl-phenyl)-pyridin-4-yl]-4-methyl-pentanoic acid] was run?
A: Its inhibition at 1 µM is 28%.

Q: For `COc1ccc(-c2cc(C(CC(C)C)C(=O)O)cc(-c3ccc(C(F)(F)F)cc3)n2)cc1` (centres unmarked) [Example 4, 2-[2-(4-Methoxy-phenyl)-6-(4-trifluoromethyl-phenyl)-pyridin-4-yl]-4-methyl-pentanoic acid], which inhibition at 1 µM is on record?
A: Its inhibition at 1 µM is 1%.

Q: With `Cc1ccc(-c2cc(C(CC(C)C)C(=O)O)cc(-c3ccc(C(F)(F)F)cc3)n2)cc1` (centres unmarked) [Example 11, 4-Methyl-2-[2-p-tolyl-6-(4-trifluoromethyl-phenyl)-pyridin-4-yl]-pentanoic acid] as the compound, how does the inhibition at 1 µM read?
A: The inhibition at 1 µM was 0%.

Q: For `CC(C)CC(C(=O)O)c1cc(-c2ccc(C(F)(F)F)cc2)nc(-c2cccc(C(F)(F)F)c2)c1` (centres unmarked) [Example 12, 4-Methyl-2-[2-(3-trifluoromethyl-phenyl)-6-(4-trifluoromethyl-phenyl)-pyridin-4-yl]-pentanoic acid], which inhibition at 1 µM is on record?
A: Its inhibition at 1 µM is 32%.

Q: With `CC(C)CC(C(=O)O)c1cc(-c2ccc(-c3ccccc3)cc2)nc(-c2ccc(C(F)(F)F)cc2)c1` (centres unmarked) [Example 13, 2-[2-Biphenyl-4-yl-6-(4-trifluoromethyl-phenyl)-pyridin-4-yl]-4-methyl-pentanoic acid] as the compound, how does the inhibition at 1 µM read?
A: Its inhibition at 1 µM is 49%.

Q: How did the inhibition at 1 µM turn out when `CC(C)CC(C(=O)O)c1cc(-c2ccc(C(F)(F)F)cc2)nc(-c2ccc3ccccc3c2)c1` (centres unmarked) [Example 14, 4-Methyl-2-[2-naphthalen-2-yl-6-(4-trifluoromethyl-phenyl)-pyridin-4-yl]-pentanoic acid] was run?
A: The inhibition at 1 µM was 34%.

Q: Which inhibition at 1 µM does the source give for `C=C(C)CC(C(=O)O)c1cc(-c2ccc(C(F)(F)F)cc2)nc(-c2ccc3ccccc3c2)c1` (centres unmarked) [Example 15, 4-Methyl-2-[2-naphthalen-2-yl-6-(4-trifluoromethyl-phenyl)-pyridin-4-yl]-pent-4-enoic acid] here?
A: Its inhibition at 1 µM is 19%.

Q: With `C=C(C)CC(C(=O)O)c1cc(-c2ccc(C(F)(F)F)cc2)nc(-c2ccc(C(F)(F)F)cc2C(F)(F)F)c1` (centres unmarked) [Example 16, 2-[2-(2,4-Bis-trifluoromethyl-phenyl)-6-(4-trifluoromethyl-phenyl)-pyridin-4-yl]-4-methyl-pent-4-enoic acid] as the compound, how does the inhibition at 1 µM read?
A: The inhibition at 1 µM was 23%.

Q: For `CC(C)CC(C(=O)O)c1cc(-c2ccc(C(F)(F)F)cc2)nc(-c2ccc(C(F)(F)F)cc2C(F)(F)F)c1` (centres unmarked) [Example 17, 2-[2-(2,4-Bis-trifluoromethyl-phenyl)-6-(4-trifluoromethyl-phenyl)-pyridin-4-yl]-4-methyl-pentanoic acid], which inhibition at 1 µM is on record?
A: Its inhibition at 1 µM is 64%.

Q: For `C=C(C)CC(C(=O)O)c1cc(-c2ccc(C(F)(F)F)cc2)nc(-c2cncc3ccccc23)c1` (centres unmarked) [Example 18, 2-[2-Isoquinolin-4-yl-6-(4-trifluoromethyl-phenyl)-pyridin-4-yl]-4-methyl-pent-4-enoic acid], which inhibition at 1 µM is on record?
A: Its inhibition at 1 µM is 14%.

Q: Which inhibition at 1 µM does the source give for `CC(C)CC(C(=O)O)c1cc(-c2ccc(C(F)(F)F)cc2)nc(-c2cncc3ccccc23)c1` (centres unmarked) [Example 19, 2-[2-Isoquinolin-4-yl-6-(4-trifluoromethyl-phenyl)-pyridin-4-yl]-4-methyl-pentanoic acid] here?
A: Its inhibition at 1 µM is 14%.

Q: How did the inhibition at 1 µM turn out when `C=C(C)CC(C(=O)O)c1cc(-c2ccc(C(F)(F)F)cc2)nc(-c2cccc(F)c2F)c1` (centres unmarked) [Example 20, 2-[2-(2,3-Difluoro-phenyl)-6-(4-trifluoromethyl-phenyl)-pyridin-4-yl]-4-methyl-pent-4-enoic acid] was run?
A: The inhibition at 1 µM was 9%.

Q: How did the inhibition at 1 µM turn out when `CC(C)CC(C(=O)O)c1cc(-c2ccc(C(F)(F)F)cc2)nc(-c2cccc(F)c2F)c1` (centres unmarked) [Example 21, 2-[2-(2,3-Difluoro-phenyl)-6-(4-trifluoromethyl-phenyl)-pyridin-4-yl]-4-methyl-pentanoic acid] was run?
A: The inhibition at 1 µM was 12%.

Q: Which inhibition at 1 µM does the source give for `CC(C)CC(C(=O)O)c1cc(-c2ccc(C(F)(F)F)cc2)nc(-c2ccc(F)cc2F)c1` (centres unmarked) [Example 22, 2-[2-(2,4-Difluoro-phenyl)-6-(4-trifluoromethyl-phenyl)-pyridin-4-yl]-4-methyl-pentanoic acid] here?
A: The inhibition at 1 µM was 5%.

Q: For `C=C(C)CC(C(=O)O)c1cc(-c2ccc(C(F)(F)F)cc2)nc(-c2ccc(F)cc2F)c1` (centres unmarked) [Example 23, 2-[2-(2,4-Difluoro-phenyl)-6-(4-trifluoromethyl-phenyl)-pyridin-4-yl]-4-methyl-pent-4-enoic acid], which inhibition at 1 µM is on record?
A: The inhibition at 1 µM was 0%.

Q: For `C=C(C)CC(C(=O)O)c1cc(-c2ccc(C(F)(F)F)cc2)nc(-c2cc(F)ccc2F)c1` (centres unmarked) [Example 24, 2-[2-(2,5-Difluoro-phenyl)-6-(4-trifluoromethyl-phenyl)-pyridin-4-yl]-4-methyl-pent-4-enoic acid], which inhibition at 1 µM is on record?
A: The inhibition at 1 µM was 22%.

Q: `CC(C)CC(C(=O)O)c1cc(-c2ccc(C(F)(F)F)cc2)nc(-c2cc(F)ccc2F)c1` (centres unmarked) [Example 25, 2-[2-(2,5-Difluoro-phenyl)-6-(4-trifluoromethyl-phenyl)-pyridin-4-yl]-4-methyl-pentanoic acid] was tested. Which inhibition at 1 µM did it give?
A: Its inhibition at 1 µM is 19%.

Q: `CC(C)CC(C(=O)O)c1cc(-c2ccc(C(F)(F)F)cc2)nc(-c2c(F)cccc2F)c1` (centres unmarked) [Example 26, 2-[2-(2,6-Difluoro-phenyl)-6-(4-trifluoromethyl-phenyl)-pyridin-4-yl]-4-methyl-pentanoic acid] was tested. Which inhibition at 1 µM did it give?
A: Its inhibition at 1 µM is 2%.

Q: Which inhibition at 1 µM does the source give for `C=C(C)CC(C(=O)O)c1cc(-c2ccc(C(F)(F)F)cc2)nc(-c2c(F)cccc2F)c1` (centres unmarked) [Example 27, 2-[2-(2,6-Difluoro-phenyl)-6-(4-trifluoromethyl-phenyl)-pyridin-4-yl]-4-methyl-pent-4-enoic acid] here?
A: Its inhibition at 1 µM is 5%.

Same assay, conditions: SKNBE2 cells carrying APP 695-wild type

Q: With `CC(C)CC(C(=O)O)c1cc(-c2ccc(C(F)(F)F)cc2)nc(-c2ccc(C(F)(F)F)cc2)c1` (centres unmarked) [Example 1, 2-[2,6-Bis-(4-trifluoromethyl-phenyl)-pyridin-4-yl]-4-methyl-pentanoic acid] as the compound, how does the pEC50 read?
A: The pEC50 was 6.59.

Q: `CC(C)CC(C(=O)O)c1cc(-c2ccc(OC(F)(F)F)cc2)nc(-c2ccc(C(F)(F)F)cc2)c1` (centres unmarked) [Example 3, 4-Methyl-2-[2-(4-trifluoromethoxy-phenyl)-6-(4-trifluoromethyl-phenyl)-pyridin-4-yl]-pentanoic acid] was tested. Which pEC50 did it give?
A: Its pEC50 is 6.42.

Q: With `CC(C)CC(C(=O)O)c1cc(-c2ccc(C(F)(F)F)cc2)nc(-c2cc(C(F)(F)F)cc(C(F)(F)F)c2)c1` (centres unmarked) [Example 6, 2-[2-(3,5-Bis-trifluoromethyl-phenyl)-6-(4-trifluoromethyl-phenyl)-pyridin-4-yl]-4-methyl-pentanoic acid] as the compound, how does the pEC50 read?
A: The pEC50 was 6.57.

Q: With `CC(C)CC(C(=O)O)c1cc(-c2ccc(C(F)(F)F)cc2)nc(-c2cnc3ccccc3c2)c1` (centres unmarked) [Example 7, 4-Methyl-2-[2-quinolin-3-yl-6-(4-trifluoromethyl-phenyl)-pyridin-4-yl]-pentanoic acid] as the compound, how does the pEC50 read?
A: The pEC50 was 6.17.

Q: `CC(C)CC(C(=O)O)c1cc(-c2ccc(C(F)(F)F)cc2)nc(-c2cc(F)cc(C(F)(F)F)c2)c1` (centres unmarked) [Example 8, 2-[2-(3-Fluoro-5-trifluoromethyl-phenyl)-6-(4-trifluoromethyl-phenyl)-pyridin-4-yl]-4-methyl-pentanoic acid] was tested. Which pEC50 did it give?
A: The pEC50 was 6.92.

Q: With `CC(C)CC(C(=O)O)c1cc(-c2ccc(C(C)C)cc2)nc(-c2ccc(C(F)(F)F)cc2)c1` (centres unmarked) [Example 9, 2-[2-(4-Isopropyl-phenyl)-6-(4-trifluoromethyl-phenyl)-pyridin-4-yl]-4-methyl-pentanoic acid] as the compound, how does the pEC50 read?
A: Its pEC50 is 6.14.

Q: With `CC(C)CC(C(=O)O)c1cc(-c2ccc(C(F)(F)F)cc2)nc(-c2cc(F)cc(F)c2)c1` (centres unmarked) [Example 10, 2-[2-(3,5-Difluoro-phenyl)-6-(4-trifluoromethyl-phenyl)-pyridin-4-yl]-4-methyl-pentanoic acid] as the compound, how does the pEC50 read?
A: Its pEC50 is 6.70.
